Where a name gives a salt, the structure may show the parent alone.
target: mGluR5 receptor (Sus scrofa, UniProt I3LUI7); test: Affinity for the mGluR5 receptor: inhibition of 3[H]-MPEP binding in pig brain homogenate; conditions: 10 μM compound, 5 nM 3[H]-MPEP, read-out: mGluR5 receptor inhibition of ^3[H]-MPEP binding [10 μM] in % at a concentration of the example compounds of 10 μM
Outline: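 Test compounds were screened at 10 μM for displacement of 5 nM [3H]-MPEP from pig brain homogenate (450 μg protein, pH 8.0 Hepes buffer) over 60 min at room temperature. After filtration, scintillation counting gave the read-out. 10 μM unlabelled MPEP set nonspecific binding.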

Sequence of mGluR5 receptor (I3LUI7 19-1212): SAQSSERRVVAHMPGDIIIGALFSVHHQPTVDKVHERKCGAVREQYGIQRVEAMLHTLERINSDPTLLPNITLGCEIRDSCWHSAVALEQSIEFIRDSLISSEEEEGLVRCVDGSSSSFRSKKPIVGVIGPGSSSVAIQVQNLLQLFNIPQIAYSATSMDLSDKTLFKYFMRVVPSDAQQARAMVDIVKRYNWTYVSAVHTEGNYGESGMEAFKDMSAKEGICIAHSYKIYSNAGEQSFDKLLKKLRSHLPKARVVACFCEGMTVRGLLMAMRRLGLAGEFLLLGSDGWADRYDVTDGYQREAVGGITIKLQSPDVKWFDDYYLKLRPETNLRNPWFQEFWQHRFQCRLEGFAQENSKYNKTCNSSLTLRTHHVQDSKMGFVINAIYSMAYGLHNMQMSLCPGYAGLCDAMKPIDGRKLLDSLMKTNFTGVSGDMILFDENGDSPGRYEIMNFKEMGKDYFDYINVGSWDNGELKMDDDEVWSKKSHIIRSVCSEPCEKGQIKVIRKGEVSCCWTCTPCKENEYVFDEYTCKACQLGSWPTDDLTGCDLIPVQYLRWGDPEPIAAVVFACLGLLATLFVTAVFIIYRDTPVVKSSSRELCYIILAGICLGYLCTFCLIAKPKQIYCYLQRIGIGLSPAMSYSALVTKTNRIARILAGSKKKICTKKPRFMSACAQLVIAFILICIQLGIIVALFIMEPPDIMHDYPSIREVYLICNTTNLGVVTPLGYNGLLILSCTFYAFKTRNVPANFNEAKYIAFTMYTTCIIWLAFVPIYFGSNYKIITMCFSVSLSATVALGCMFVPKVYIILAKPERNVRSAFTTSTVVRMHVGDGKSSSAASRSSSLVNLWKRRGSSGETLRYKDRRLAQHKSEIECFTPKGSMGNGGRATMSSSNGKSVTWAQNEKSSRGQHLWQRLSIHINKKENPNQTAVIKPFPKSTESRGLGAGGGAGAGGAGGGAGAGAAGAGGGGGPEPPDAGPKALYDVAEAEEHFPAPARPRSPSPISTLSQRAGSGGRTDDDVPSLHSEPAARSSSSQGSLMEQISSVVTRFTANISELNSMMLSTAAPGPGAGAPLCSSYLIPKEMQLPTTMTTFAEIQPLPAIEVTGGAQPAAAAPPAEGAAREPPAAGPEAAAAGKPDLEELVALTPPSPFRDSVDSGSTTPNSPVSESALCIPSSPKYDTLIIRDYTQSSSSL

Row | inhibition at 10 µM | SMILES
1 | 79% | Cc1cccc(C#Cc2cccc(-c3nc4ccc(Cl)cn4c3NC3CCCCC3)c2)n1 [Example 193, 6-chloro-N-cyclohexyl-2-(3-((6-methylpyridin-2-yl)ethynyl)phenyl)imidazo[1,2-a]pyridin-3-amine]
2 | 30% | Cc1cc(C)n2c(NCCc3ccccc3)c(-c3ccc(C#Cc4ccccc4)s3)nc2n1 [Example 194, 5,7-dimethyl-N-phenethyl-2-(5-(phenylethynyl)thiophen-2-yl)imidazo[1,2-a]pyrimidin-3-amine]
3 | 53% | COc1cccc(CCNc2c(-c3ccc(C#Cc4ccccc4)s3)nc3nc(C)cc(C)n23)c1 [Example 195, N-(3-methoxyphenethyl)-5,7-dimethyl-2-(5-(phenylethynyl)thiophen-2-yl)imidazo[1,2-a]pyrimidin-3-amine]
4 | 68% | COc1cccc(CCNc2c(-c3cc(C#Cc4ccccc4)cs3)nc3nc(C)cc(C)n23)c1 [Example 196, N-(3-methoxyphenethyl)-5,7-dimethyl-2-(4-(phenylethynyl)thiophen-2-yl)imidazo[1,2-a]pyrimidin-3-amine]
5 | 31% | COc1cccc(CCNc2c(-c3ccc(C#Cc4ccccc4)o3)nc3nc(C)cc(C)n23)c1 [Example 197, N-(3-methoxyphenethyl)-5,7-dimethyl-2-(5-(phenylethynyl)furan-2-yl)imidazo[1,2-a]pyrimidin-3-amine]

same assay, conditions: 3[H]-MPEP binding

Row | IC50 | SMILES
6 | 36 nM | CC(C)(C)Nc1c(-c2ccc(C#Cc3cncc(C#N)c3)s2)nc2cnccn12 [Example 172, 5-((5-(3-(tert-butylamino)imidazo[1,2-a]pyrazin-2-yl)thiophen-2-yl)ethynyl)nicotinonitrile hydrochloride]
7 | 800 nM | CSc1cccc(C#Cc2ccc(-c3nc4cnccn4c3NC(C)(C)C)s2)c1 [Example 173, N-tert-butyl-2-(5-((3-(methylthio)phenyl)ethynyl)thiophen-2-yl)imidazo[1,2-a]pyrazin-3-amine]
8 | 840 nM | COC(=O)c1cccc(C#Cc2ccc(-c3nc4cnccn4c3NC(C)(C)C)s2)c1 [Example 174, methyl-3-((5-(3-(tert-butylamino)imidazo[1,2-a]pyrazin-2-yl)thiophen-2-yl)ethynyl)benzoate]
9 | 51 nM | CC(C)(C)Nc1c(-c2ccc(C#Cc3ncc(F)cc3F)s2)nc2cnccn12 [Example 175, N-tert-butyl-2-(5-((3,5-difluoropyridin-2-yl)ethynyl)thiophen-2-yl)imidazo[1,2-a]pyrazin-3-amine]
10 | 16 nM | CC(C)(C)Nc1c(-c2cnc(C#Cc3ccncc3)s2)nc2cnccn12 [Example 177, N-tert-butyl-2-(2-(pyridin-4-ylethynyl)thiazol-5-yl)imidazo[1,2-a]pyrazin-3-amine]
11 | 24 nM | CC(C)(C)Nc1c(-c2ccc(C#Cc3cccc(C=O)c3)s2)nc2cnccn12 [Example 178, 3-((5-(3-(tert-butylamino)imidazo[1,2-a]pyrazin-2-yl)thiophen-2-yl)ethynyl)benzaldehyde]
12 | 26 nM | CC(C)(C)Nc1c(-c2ccc(C#Cc3cc(C#N)ccc3F)s2)nc2cnccn12 [Example 179, 3-((5-(3-(tert-butylamino)imidazo[1,2-a]pyrazin-2-yl)thiophen-2-yl)ethynyl)-4-fluorobenzonitrile]
13 | 580 nM | CC(C)(C)Nc1c(-c2ccc(C#Cc3cccc(C(F)(F)F)c3)s2)nc2cnccn12 [Example 180, N-tert-butyl-2-(5-((3-(trifluoromethyl)phenyl)ethynyl)thiophen-2-yl)imidazo[1,2-a]pyrazin-3-amine hydrochloride]
14 | 18 nM | CC(C)(C)Nc1c(-c2cnc(C#Cc3ccccn3)s2)nc2cnccn12 [Example 181, N-tert-butyl-2-(2-(pyridin-2-ylethynyl)thiazol-5-yl)imidazo[1,2-a]pyrazin-3-amine]
15 | 8850 nM | Cc1cc(C#Cc2ccccc2)sc1-c1nc2cnccn2c1NC(C)(C)C [Example 182, N-tert-butyl-2-(3-methyl-5-(phenylethynyl)thiophen-2-yl)imidazo[1,2-a]pyrazin-3-amine hydrochloride]
16 | 230 nM | Cc1cc(C#Cc2ccccn2)sc1-c1nc2cnccn2c1NC(C)(C)C [Example 183, N-tert-butyl-2-(3-methyl-5-(pyridin-2-ylethynyl)thiophen-2-yl)imidazo[1,2-a]pyrazin-3-amine hydrochloride]
17 | 270 nM | C=Cc1cccc(C#Cc2ccc(-c3nc4cnccn4c3NC(C)(C)C)s2)c1 [Example 184, N-tert-butyl-2-(5-((3-vinylphenyl)ethynyl)thiophen-2-yl)imidazo[1,2-a]pyrazin-3-amine]
18 | 190 nM | CC(C)(C)Nc1c(-c2ccc(C#Cc3c[nH]cn3)s2)nc2cnccn12 [Example 185, 2-(5-((1H-imidazol-4-yl)ethynyl)thiophen-2-yl)-N-tert-butylimidazo[1,2-a]pyrazin-3-amine hydrochloride]

The next lines start with the compound.

Row | SMILES | IC50
19 | CC(C)(C)Nc1c(-c2ccc(C#Cc3cccc(-n4cccc4)c3)s2)nc2cnccn12 [Example 148, 2-(5-((3-(1H-pyrrol-1-yl)phenyl)ethynyl)thiophen-2-yl)-N-tert-butylimidazo[1,2-a]pyrazin-3-amine hydrochloride] | 330 nM
20 | CC(C)(C)Nc1c(-c2ccc(C#Cc3cccc([N+](=O)[O-])c3)s2)nc2cnccn12 [Example 150, N-tert-butyl-2-(5-((3-nitrophenyl)ethynyl)thiophen-2-yl)imidazo[1,2-a]pyrazin-3-amine hydrochloride] | 110 nM
21 | CC(C)(C)Nc1c(-c2ccc(C#Cc3cscn3)s2)nc2cnccn12 [Example 152, N-tert-butyl-2-(5-(thiazol-4-ylethynyl)thiophen-2-yl)imidazo[1,2-a]pyrazin-3-amine hydrochloride] | 23 nM
22 | CC(C)(C)Nc1c(-c2ccc(C#Cc3ccccc3O)s2)nc2cnccn12 [Example 153, 2-((5-(3-(tert-butylamino)imidazo[1,2-a]pyrazin-2-yl)thiophen-2-yl)ethynyl)phenol] | 2990 nM
23 | CC(C)(C)Nc1c(-c2ccc(C#Cc3cccc(CN)c3)s2)nc2cnccn12 [Example 154, 2-(5-((3-(aminomethyl)phenyl)ethynyl)thiophen-2-yl)-N-tert-butylimidazo[1,2-a]pyrazin-3-amine] | 590 nM
24 | CC(C)(C)Nc1c(-c2ccc(C#Cc3ccsc3)s2)nc2cnccn12 [Example 156, N-tert-butyl-2-(5-(thiophen-3-ylethynyl)thiophen-2-yl)imidazo[1,2-a]pyrazin-3-amine hydrochloride] | 27 nM
25 | CN(C)c1cccc(C#Cc2ccc(-c3nc4cnccn4c3NC(C)(C)C)s2)c1 [Example 157, N-tert-butyl-2-(5-((3-(dimethylamino)phenyl)ethynyl)thiophen-2-yl)imidazo[1,2-a]pyrazin-3-amine hydrochloride] | 1550 nM
26 | Cc1cccc(C#Cc2ccc(-c3nc4cnccn4c3NC(C)(C)C)s2)n1 [Example 158, N-tert-butyl-2-(5-((6-methylpyridin-2-yl)ethynyl)thiophen-2-yl)imidazo[1,2-a]pyrazin-3-amine hydrochloride] | 33 nM
27 | CC(C)(C)Nc1c(-c2ccc(C#Cc3ncccc3F)s2)nc2cnccn12 [Example 159, N-tert-butyl-2-(5-((3-fluoropyridin-2-yl)ethynyl)thiophen-2-yl)imidazo[1,2-a]pyrazin-3-amine hydrochloride] | 10 nM
28 | CNc1cccc(C#Cc2ccc(-c3nc4cnccn4c3NC(C)(C)C)s2)c1 [Example 160, N-tert-butyl-2-(5-((3-(methylamino)phenyl)ethynyl)thiophen-2-yl)imidazo[1,2-a]pyrazin-3-amine hydrochloride] | 94 nM
29 | Cc1ccc(C#Cc2ccc(-c3nc4cnccn4c3NC(C)(C)C)s2)cc1 [Example 161, N-tert-butyl-2-(5-(p-tolylethynyl)thiophen-2-yl)imidazo[1,2-a]pyrazin-3-amine] | 7740 nM
30 | Cc1ccccc1C#Cc1ccc(-c2nc3cnccn3c2NC(C)(C)C)s1 [Example 162, N-tert-butyl-2-(5-(o-tolylethynyl)thiophen-2-yl)imidazo[1,2-a]pyrazin-3-amine hydrochloride] | 4240 nM
31 | Cc1cc(-c2nc3cnccn3c2NC(C)(C)C)sc1C#Cc1ccccn1 [Example 164, N-tert-butyl-2-(4-methyl-5-(pyridin-2-ylethynyl)thiophen-2-yl)imidazo[1,2-a]pyrazin-3-amine hydrochloride] | 54 nM
32 | CC(C)(C)Nc1c(-c2ccc(C#Cc3cccc(F)n3)s2)nc2cnccn12 [Example 165, N-tert-butyl-2-(5-((6-fluoropyridin-2-yl)ethynyl)thiophen-2-yl)imidazo[1,2-a]pyrazin-3-amine] | 18 nM
33 | CC(C)(C)Nc1c(-c2ccc(C#Cc3ccccc3[N+](=O)[O-])s2)nc2cnccn12 [Example 166, N-tert-butyl-2-(5-((2-nitrophenyl)ethynyl)thiophen-2-yl)imidazo[1,2-a]pyrazin-3-amine] | 11300 nM
34 | CC(C)(C)Nc1c(-c2ccc(C#Cc3ccccn3)s2)nc2c(Cl)nccn12 [Example 167, N-tert-butyl-8-chloro-2-(5-(pyridin-2-ylethynyl)thiophen-2-yl)imidazo[1,2-a]pyrazin-3-amine] | 12 nM
35 | COc1cccc(C#Cc2ccc(-c3nc4cnccn4c3NC(C)(C)C)s2)n1 [Example 168, N-tert-butyl-2-(5-((6-methoxypyridin-2-yl)ethynyl)thiophen-2-yl)imidazo[1,2-a]pyrazin-3-amine] | 640 nM
36 | CC(C)(C)Nc1c(-c2ccc(C#Cc3ccc(F)cn3)s2)nc2cnccn12 [Example 169, N-tert-butyl-2-(5-((5-fluoropyridin-2-yl)ethynyl)thiophen-2-yl)imidazo[1,2-a]pyrazin-3-amine hydrochloride] | 11 nM
37 | COc1cncc(C#Cc2ccc(-c3nc4cnccn4c3NC(C)(C)C)s2)c1 [Example 171, N-tert-butyl-2-(5-((5-methoxypyridin-3-yl)ethynyl)thiophen-2-yl)imidazo[1,2-a]pyrazin-3-amine hydrochloride] | 360 nM

From US7420056B2, “Substituted bicyclic imidazo-3-ylamine compounds” (Gruenenthal GmbH, priority 2004, dated 2008)
